IC50 data for five molecules are collected here from US20070004660A1, “Synergistic Modulation of Flt3 Kinase Using Alkylquinolines and Alkylquinazolines” (priority 2005, published 2007).

The target in the assay is T1, wild-type FLT3 receptor (Homo sapiens, UniProt P36888).
T1 construct: host or cells: Baf3 (murine B cell lymphoma line), stably transfected
T1 sequence (P36888 27-993): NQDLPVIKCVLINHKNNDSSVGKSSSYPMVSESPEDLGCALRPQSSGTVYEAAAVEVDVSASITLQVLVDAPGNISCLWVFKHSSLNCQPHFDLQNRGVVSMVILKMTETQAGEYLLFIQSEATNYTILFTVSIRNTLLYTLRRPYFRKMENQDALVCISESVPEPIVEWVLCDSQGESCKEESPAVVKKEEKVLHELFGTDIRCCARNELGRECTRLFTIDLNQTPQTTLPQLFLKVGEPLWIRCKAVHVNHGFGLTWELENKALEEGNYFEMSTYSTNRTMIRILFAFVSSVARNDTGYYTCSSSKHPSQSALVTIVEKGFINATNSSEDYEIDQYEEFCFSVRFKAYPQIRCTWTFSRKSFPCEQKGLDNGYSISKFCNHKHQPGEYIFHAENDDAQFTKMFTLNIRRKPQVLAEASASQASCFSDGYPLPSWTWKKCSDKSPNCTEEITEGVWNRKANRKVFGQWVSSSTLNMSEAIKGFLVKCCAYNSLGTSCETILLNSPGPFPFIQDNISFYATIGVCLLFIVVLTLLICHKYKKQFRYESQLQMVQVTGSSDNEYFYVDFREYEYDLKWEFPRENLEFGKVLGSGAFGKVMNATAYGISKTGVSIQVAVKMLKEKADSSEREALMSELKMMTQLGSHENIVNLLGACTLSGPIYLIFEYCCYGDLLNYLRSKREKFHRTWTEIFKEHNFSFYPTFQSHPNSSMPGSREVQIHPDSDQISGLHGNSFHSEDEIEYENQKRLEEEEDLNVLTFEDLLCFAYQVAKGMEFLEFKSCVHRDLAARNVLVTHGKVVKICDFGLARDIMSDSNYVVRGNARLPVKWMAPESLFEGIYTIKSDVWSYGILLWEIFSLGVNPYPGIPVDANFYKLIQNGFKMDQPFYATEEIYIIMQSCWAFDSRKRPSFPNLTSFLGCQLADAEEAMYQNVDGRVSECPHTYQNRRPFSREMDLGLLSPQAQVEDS
The assay is described as follows: Cell-based FLT3 receptor ELISA (FLT ligand-induced phosphorylation in Baf3 FLT3 cells). As to conditions: 100 ng/mL Flt ligand, uncertainty ±20%. An outline of the steps:
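Receptor phosphotyrosine measured by sandwich ELISA (anti-FLT3 capture, HRP anti-pTyr, luminescence) in FLT3-transfected murine Baf3 cells given 1 h compound pretreatment and 10 min 100 ng/mL FLT ligand after overnight low-serum starvation; triplicates, IC50 from nonlinear regression.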
Regarding `O=C(Nc1ccc(N2CCCC2)cc1)N1CCC(c2ncnc3cc(OCCN4CCC[C@H]4CO)ccc23)CC1` [Example 152, (S)-4-{7-[2-(2-Hydroxymethyl-pyrrolidin-1-yl)-ethoxy]-quinazolin-4-yl}-piperidine-1-carboxylic acid (4-pyrrolidin-1-yl-phenyl)-amide], the midpoint of inhibition, the IC50, lay at 42 nM.
The molecule `CCN(CC)CCCOc1ccc2c(C3CCN(C(=O)Nc4ccc(N5CCOCC5)cc4)CC3)ncnc2c1` [Example 134, 4-[7-(3-Diethylamino-propoxy)-quinazolin-4-yl]-piperidine-1-carboxylic acid (4-morpholin-4-yl-phenyl)-amide] yielded an IC50 of 31 nM.
In turn, `CS(=O)(=O)N1CCN(c2ccc3c(C4CCN(C(=O)Nc5ccc(N6CCOCC6)cc5)CC4)ncnc3c2)CC1` [Example 142, 4-[7-(4-Methanesulfonyl-piperazin-1-yl)-quinazolin-4-yl]-piperidine-1-carboxylic acid (4-morpholin-4-yl-phenyl)-amide] gave an IC50 of 5 nM.
The result for `O=C(Nc1ccc(N2CCCC2)cc1)N1CCC(c2ncnc3cc(N4CCN(CCO)CC4)ccc23)CC1` [Compound 185, 4-{7-[4-(2-Hydroxy-ethyl)-piperazin-1-yl]-quinazolin-4-yl}-piperidine-1-carboxylic acid (4-pyrrolidin-1-yl-phenyl)-amide] reads 1 nM.
The result for `CN1CCC[C@H]1COc1ccc2c(C3CCN(C(=O)Nc4ccc(N5CCCC5)cc4)CC3)ncnc2c1` [Example 151, (S)-4-[7-(1-Methyl-pyrrolidin-2-ylmethoxy)-quinazolin-4-yl]-piperidine-1-carboxylic acid (4-pyrrolidin-1-yl-phenyl)-amide] reads 45 nM.
